This is an account of results in patent US8088818B2, “Catechol-based derivatives for treating or preventing diabetics” (National Taiwan University, priority 2006, dated 2012).

The test system of data set [1] is coronary artery. The data set can be described thus: Flow rate of the coronary artery in the isolated perfused rat heart (Langendorff). The note with it: for effect on coronary flow rate (in words): Wistar rats, Tables 15 and 16; for coronary flow: isolated Wistar rat heart. How it is done:
Each of the male Wistar rats weighs about 200-250 grams, and is anesthetized with 25 mg/kg pentobarbital and 16 mg/kg heparin by injecting into the abdominal cavity. After falling asleep, separate the cervical vertebra and immediately take the heart out hanging on the constant pouring pressure circulation instrument (Langendorff, AD Instruments Pty Ltd, ML870B2) and fill a 37[…] pouring solution of 95% of oxygen and 5% of carbon dioxide with the artery (119.7 mM NaCl, 23.8 mM NaHCO3, 5.6 mM glucose, 1.2 mM CaCl2, 1.1 mM MgCl2, 0.3 mM NaH2PO4, and 5.0 mM KCl), which washes the heart and clean out the blood water by pouring in a reverse direction. The rate of the reverse pouring is 10 ml/min, followed by maintaining the pouring pressure of the coronary artery at 80 mmHg. After balancing for thirty minutes, measure the rate of the pouring solution flowing in the heart, and observe the change of the rate the pouring solution flowing in the heart while the testing drug is added.

The subject of data set [2] is Normal rats. The data set can be described thus: Blood sugar lowering in normal rats after oral administration. The format is in vivo, rat. Particulars: 0.5 mg/kg oral; for % decrease in plasma glucose: Table 14; for Pre-treatment Plasma glucose: pre-treatment (baseline). How it is done:
(a) Male Wistar rats are provided from the National Laboratory Animal Breeding and Research Center (Taipei, Taiwan), each of whose weight is about 200-250 grams, and the average age thereof is above 8 weeks. They were housed under conditions of constant temperature (25±1[…]) and controlled illumination (light time and dark time are respectively 12 hours). Food and water were available.
(§1) (d) The administration: Dissolve the medicine equivalently in deionized water, and then administrate the mentioned solution into the normal and diabetic rats by an orally perfusion. Keep with the desired concentration of the perfusion amount by taking suitable amount of the medicine solution according to the weight of the different animal.
(§2) The rats to be experimented should undergo a starvation for 8-12 hours overnight. Next day, the rats are anesthetized with 30 mg/kg pentobarbital by injecting into the abdominal cavity. After the rats fall asleep, fix the rats on the board with the rubber band. Open the groin, find the veins, bleed 0.1 ml blood from an empty stomach, and then feed the medicine into the body of the rats by taking orally. After 90 minutes, bleed and perform a centrifugation (13,000 rpm, 5 minutes) to separate the serum and the plasma. Take the 10 μl supernatant of the serum and add 1 ml reagent of the glucose kit thereinto by gently mixing. React for 5 minutes at 37 °C, followed by detecting the value of the blood sugar by means of BST330 based on the different absorption level. […] The value of the blood sugar (mg/dL) is calculated by comparing the level of redness with contrasting the standard curve.
(§3) (The value of blood sugar at postadministration)−(The value of blood sugar at preadministration)/(The value of blood sugar at preadministration)×100%
The results of the experiments are presented in the average value±the standard error (mean±SE), and the variations therebetween are evaluated according to the Student's t-test, while the variations thereamong are evaluated according to one-way ANOVA and Bonferroni's t-test, wherein P<0.05 is deemed to have apparent differences.

For data set [3] the following is noted: literature; cited from earlier work.
Data set [4] deals with Type 2 diabetic rats. The data set can be described thus: Blood sugar lowering in insulin-induced type 2 diabetic rats after oral administration. The format is in vivo, rat. Particulars: type II diabetic rats, 1 mg/kg, p.o., 90 minutes. How it is done: (c) Insulin-induced type 2 diabetic rats: the abdominal cavity of the male Wistar rats of 12 weeks age are injected with 0.5 IU/kg long-term insulin (MonotardR HM) three times a day for fourteen days. Then, the 10 mg/kg tolbutamide, an anti-diabetic drug of sulfonylurea class, is injected into the abdominal cavity. Phlebotomize 0.1 ml blood respectively at the preadministration and the postadministration of sixty minutes, and calculate the reduced value of the blood sugar. If the variation of the ability of lowering blood sugar is less than 10%, which is deemed as the type II (insulin resistance) diabetes rat.
as §1, §2, §3

SMILES strings stand for the structures.

As for `O=C(C=Cc1ccc(O)c(O)c1)NCc1cccc(F)c1` [Compound 638I], the “effect on coronary flow rate (in words)” value in data set [1] is “capable of increasing the coronary flow rate”. In addition, the coronary flow in data set [1] (conc. 0 (baseline)) is 7.4 ± 0.7 mL/min; in data set [1] (conc. 0.1 (unit printed .[…]M)), 7.1 ± 0.5 mL/min; in data set [1] (conc. 0.3 (unit printed .[…]M)), 7.1 ± 0.5 mL/min; in data set [1] (conc. 1 (unit printed .[…]M)) it was 7.6 ± 0.8 mL/min; in data set [1] (conc. 3 (unit printed .[…]M)), 8.2 ± 0.8 mL/min; in data set [1] (conc. 10 (unit printed .[…]M)), 9.3 ± 0.7 mL/min.

Turning to `O=C(C=Cc1ccc(O)c(O)c1)NCCc1ccc(Br)cc1` [638 B], in data set [2], the “% decrease in plasma glucose” value is listed as 21.4 ± 3.0 %, the “Post-treatment Plasma glucose” value was found to be 76.8 ± 4.1 mg/dL and the “Pre-treatment Plasma glucose” value is 98.1 ± 5.2 mg/dL.

Take `COc1cc(CNC(=O)CCCC/C=C/C(C)C)ccc1O` [capsaicin]: the “lowering blood sugar (earlier studies)” value in data set [3] is “effective in lowering blood sugar”.

For `COc1cc(/C=C/C(=O)NCCc2ccccc2)ccc1O` [Compound 640], the “effect on coronary flow rate (in words)” value in data set [1] is “capable of increasing the coronary flow rate”. For the same compound, the coronary flow in data set [1] (conc. 0 (baseline)) is 9.7 ± 1.3 mL/min; in data set [1] (conc. 0.1 (unit printed .[…]M)), 10.1 ± 1.5 mL/min; in data set [1] (conc. 0.3 (unit printed .[…]M)), 10.2 ± 1.4 mL/min; in data set [1] (conc. 1 (unit printed .[…]M)), 10.3 ± 1.5 mL/min; in data set [1] (conc. 3 (unit printed .[…]M)), 11.0 ± 1.5 mL/min; in data set [1] (conc. 10 (unit printed .[…]M)) it was 14.6 ± 2.2 mL/min.

For `CC(=O)Oc1ccc(C=CC(=O)NCCc2ccccc2)cc1OC(C)=O` [639 B], in data set [2], the “% decrease in plasma glucose” value is listed as 28.1 ± 3.3 %, the “Post-treatment Plasma glucose” value was determined as 84.0 ± 5.0 mg/dL and the “Pre-treatment Plasma glucose” value was 116.7 ± 2.8 mg/dL. Also, the “effect on coronary flow rate (in words)” value in data set [1] is recorded as “capable of increasing the coronary flow rate”. Further, in data set [1] (conc. 0 (baseline)), the coronary flow came out at 7.4 ± 0.2 mL/min. For the same compound, in data set [1] (conc. 1 (unit printed .[…]M)), the coronary flow came to 9.0 ± 0.4 mL/min. This compound had a coronary flow in data set [1] (conc. 3 (unit printed .[…]M)) of 11.6 ± 0.6 mL/min.

Consider `COc1ccc(CCNC(=O)C=Cc2ccc(O)c(O)c2)cc1OC` [638 A], for which, in data set [2], the “% decrease in plasma glucose” value came to 18.1 ± 2.9%, the “Post-treatment Plasma glucose” value is reported as 83.6 ± 1.9 mg/dL and the “Pre-treatment Plasma glucose” value is 102.5 ± 2.4 mg/dL.

With `CN(Cc1ccccc1)C(=O)C=Cc1ccc(O)c(O)c1` [Compound 642A], the “effect on coronary flow rate (in words)” value in data set [1] is “capable of increasing the coronary flow rate”. Besides, the coronary flow in data set [1] (conc. 0 (baseline)) was 10.0 ± 0.7 mL/min; in data set [1] (conc. 0.1 (unit printed .[…]M)), 12.9 ± 0.4 mL/min; in data set [1] (conc. 0.3 (unit printed .[…]M)), 14.2 ± 0.8 mL/min; in data set [1] (conc. 1 (unit printed .[…]M)), 16.8 ± 1.6 mL/min; in data set [1] (conc. 3 (unit printed .[…]M)), 19.8 ± 2.1 mL/min.

`O=C(C=Cc1ccc(O)c(O)c1)Nc1ccc(O)cc1` [Compound 638H]: the coronary flow in data set [1] (conc. 0 (baseline)) came to 9.0 ± 0.3 mL/min; in data set [1] (conc. 0.1 (unit printed .[…]M)), 9.0 ± 0.5 mL/min; in data set [1] (conc. 0.3 (unit printed .[…]M)) it was 8.9 ± 0.5 mL/min; in data set [1] (conc. 1 (unit printed .[…]M)), 9.1 ± 0.5 mL/min; in data set [1] (conc. 3 (unit printed .[…]M)), 10.1 ± 0.7 mL/min; in data set [1] (conc. 10 (unit printed .[…]M)), 13.1 ± 1.0 mL/min.

In the case of `O=C(O)/C=C/c1ccc(O)c(O)c1` [caffeic acid], the “lowering blood sugar (earlier studies)” value in data set [3] is “effective in lowering blood sugar”.

Regarding `CCCCNC(=O)C=Cc1ccc2c(c1)OCO2`, the melting point is 82 to 83 °C.

Take `CN(CCOc1ccc(CC2SC(=O)NC2=O)cc1)c1ccccn1` (centres unmarked) [Rosiglitazone, reference compound]: the “% decrease in plasma glucose” value in data set [4] was 15.6 ± 6.3%.

`CN(CCc1ccccc1)C(=O)C=Cc1ccc(O)c(O)c1` [Compound 642B]: the “effect on coronary flow rate (in words)” value in data set [1] is recorded as “capable of increasing the coronary flow rate”. Further, the coronary flow was found to be 9.8 ± 2.1 mL/min in data set [1] (conc. 0 (baseline)); 9.8 ± 2.1 mL/min in data set [1] (conc. 0.1 (unit printed .[…]M)); 10.4 ± 1.7 mL/min in data set [1] (conc. 0.3 (unit printed .[…]M)); 12.8 ± 1.9 mL/min in data set [1] (conc. 1 (unit printed .[…]M)); 17.4 ± 1.9 mL/min in data set [1] (conc. 3 (unit printed .[…]M)); 23.2 ± 1.7 mL/min in data set [1] (conc. 10 (unit printed .[…]M)).

With `O=C(/C=C/c1ccc2c(c1)OCO2)NCCc1ccccc1` [615 (37)], in data set [2], the “% decrease in plasma glucose” value came out at 23.9 ± 2.1 %, the “Post-treatment Plasma glucose” value was determined as 105.2 ± 3.5 mg/dL and the “Pre-treatment Plasma glucose” value is recorded as 138.3 ± 4.1 mg/dL.
